These results are taken from patent publication US20190106460A1, “BINDING INHIBITORS OF THE BETA. TRANSDUCIN REPEAT-CONTAINING PROTEIN” (priority 2011, published 2019).

Where two headings read alike, the source gives them in different places. Non-standard residues stand in square brackets, D forms with d. Residues, ends and D or L forms follow the SMILES beside them. *: point of attachment. Phe(3-F) = N[C@@H](Cc1cccc(F)c1)C(=O)O; X2 = COc1ccc(S(=O)(=O)*)cc1OC; Tos = Cc1ccc(S(=O)(=O)*)cc1; Moc = COC(=O)*

As a reminder, the inhibition is the percentage by which the read-out fell short of the control.

Experiment [1] has as its target T1, βTrCP (Homo sapiens, UniProt Q9Y297).
T1 sequence (Q9Y297 1-605): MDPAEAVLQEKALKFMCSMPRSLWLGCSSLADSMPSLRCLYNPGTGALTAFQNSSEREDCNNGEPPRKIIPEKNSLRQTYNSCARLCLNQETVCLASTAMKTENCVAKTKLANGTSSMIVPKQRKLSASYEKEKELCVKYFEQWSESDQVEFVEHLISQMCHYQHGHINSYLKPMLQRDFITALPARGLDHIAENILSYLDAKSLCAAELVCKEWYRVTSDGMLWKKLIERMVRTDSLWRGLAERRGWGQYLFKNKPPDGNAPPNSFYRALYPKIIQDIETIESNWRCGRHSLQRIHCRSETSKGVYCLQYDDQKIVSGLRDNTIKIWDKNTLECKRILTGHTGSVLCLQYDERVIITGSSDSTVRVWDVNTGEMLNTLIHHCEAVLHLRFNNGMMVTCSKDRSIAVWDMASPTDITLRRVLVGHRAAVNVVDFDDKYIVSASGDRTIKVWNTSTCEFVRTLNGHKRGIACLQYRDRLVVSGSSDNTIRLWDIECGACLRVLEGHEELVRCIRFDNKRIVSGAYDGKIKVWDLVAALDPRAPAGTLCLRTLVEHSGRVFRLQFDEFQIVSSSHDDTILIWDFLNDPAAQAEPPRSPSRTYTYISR
Briefly: Biotin pull down assay with biotinylated IκB peptide. Type of experiment: binding. The conditions noted are these: for Biotin Pulldown Assay 10 μM: 10 μM compound; for Biotin Pulldown Assay 100 μM: 100 μM compound.

A further experiment concerns the target FBW7/Skp1 (Homo sapiens, UniProt Q969H0). Briefly: Selectivity assay vs other E3s: Fbw7. The conditions noted are these: for inhibition at 100 µM: value in brackets, read-out: % Inhibition Fbw7 @ (100 μM); for inhibition at 10 µM: read-out: % Inhibition Fbw7 @ 10 μM. It counts as biochemical. As to the method: (§1) βTrCP Ubiquitination Assay and Selectivity Assays
(§2) Master mixes were prepared in a 50 mM Herpes buffer at pH 7.5, in 75 mM NaCl and 1 mM DTT without Mg or ATP and peptides were added to a final concentration of 100 μM. Reactions were incubated at room temperature for 30 minutes and then Mg/ATP was added to the mix. Reactions were further incubated for an additional 60 minutes and then stopped by adding SDS gel loading buffer and boiled for 5 minutes. Reactions were run on SDS-PAGE (10%) and transferred to nitrocellulose membranes and probed with HRP-Streptavidin.
FBW7 selectivity assays were performed in the same manner except using FBW7/Skp1 as E3 component and cyclin E as the substrate. Blots were probed using anti-cyclin E antibody.
(§3) Candidate compounds were tested for inhibition of Fbw7 and Skp2 as described above.

Experiment [2] concerns the target βTrCP (Homo sapiens, UniProt Q9Y297). Briefly: Fluorescence polarisation (FP) binding assay with fluorescein-tagged IκB peptide. In general terms: Polarisation of emitted light reports the rotation of a fluorescent probe.
Target sequence in this assay (P63208 whole entry partner, one chain of several): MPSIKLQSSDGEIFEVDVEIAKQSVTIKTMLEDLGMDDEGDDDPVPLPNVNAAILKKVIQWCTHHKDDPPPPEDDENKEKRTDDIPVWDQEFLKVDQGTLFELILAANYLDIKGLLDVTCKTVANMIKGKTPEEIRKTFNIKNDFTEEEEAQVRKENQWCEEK
For a further experiment, the target named is β-TrCP1/Skp1 (Homo sapiens, UniProt Q9Y297). Briefly: βTrCP ubiquitination assay (Ub assay). It counts as biochemical. The conditions noted are these: for Ub Assay 10 μM: 10 μM compound; for Ub Assay 100 μM: 100 μM compound. As for the experimental part:
as §1
0.5 μM Peptide substrate (biotin)
as §2
Candidate compounds were tested in duplicate at both 10 and 100 μM against the E3 ligase cascades βTrCP(IκBα) and βTrCP(β-catenin). The E3 assays were carried out according to the component concentrations detailed in Table 9. In each case the E2 was HA,6His-UbcH3-(hu,FL), the E1 was 6His-UBE1-(hu,FL) and the ubiquitin (Sigma U6253) was biotinylated at a 5:1 ratio. Substrate phosphorylation was performed in the absence of compound; consequently any observed signal modulation should not reflect inhibition of the up-stream kinase reaction. All other steps (E1, E2 and substrate ubiquitination) were carried out in the presence of compound. The stopped reaction mix (10 μl) was added to an ECL plate loaded with anti c-Myc ( 1/500 Dilution, Millipore 05-724) and blocked with 5% BSA. Binding was allowed to proceed for 1 hour at RT before a wash step (3 40 μl PBST washes). Detection was achieved by binding SA-Ru TAG at 1 μg/ml (1 hour @ RT, 3 40 μl PBST washes) before reading on an MSD Sector Imager 6000.
Assays were performed as described above

A further experiment addresses Skp2 (Homo sapiens, UniProt Q13309). The experiment can be described thus: Selectivity assay vs other E3s: Skp2. Type of experiment: biochemical. The conditions noted are these: for inhibition at 100 µM: value in brackets, read-out: % Inhibition Skp2 @ (100 μM); for inhibition at 10 µM: read-out: % Inhibition Skp2 @ 10 μM. As for the experimental part: as §1, §2, §3

Where [3] appears, read: Table 11, with spread, read-out: FP IC50/μM.
[4] abbreviates: Tables 1, 3, 7, 8, 10 nM fluorescein-tagged IκB peptide, read-out: FP Assay IC50/μM.

Sequence of FBW7/Skp1 (Q969H0 whole entry, species assumed): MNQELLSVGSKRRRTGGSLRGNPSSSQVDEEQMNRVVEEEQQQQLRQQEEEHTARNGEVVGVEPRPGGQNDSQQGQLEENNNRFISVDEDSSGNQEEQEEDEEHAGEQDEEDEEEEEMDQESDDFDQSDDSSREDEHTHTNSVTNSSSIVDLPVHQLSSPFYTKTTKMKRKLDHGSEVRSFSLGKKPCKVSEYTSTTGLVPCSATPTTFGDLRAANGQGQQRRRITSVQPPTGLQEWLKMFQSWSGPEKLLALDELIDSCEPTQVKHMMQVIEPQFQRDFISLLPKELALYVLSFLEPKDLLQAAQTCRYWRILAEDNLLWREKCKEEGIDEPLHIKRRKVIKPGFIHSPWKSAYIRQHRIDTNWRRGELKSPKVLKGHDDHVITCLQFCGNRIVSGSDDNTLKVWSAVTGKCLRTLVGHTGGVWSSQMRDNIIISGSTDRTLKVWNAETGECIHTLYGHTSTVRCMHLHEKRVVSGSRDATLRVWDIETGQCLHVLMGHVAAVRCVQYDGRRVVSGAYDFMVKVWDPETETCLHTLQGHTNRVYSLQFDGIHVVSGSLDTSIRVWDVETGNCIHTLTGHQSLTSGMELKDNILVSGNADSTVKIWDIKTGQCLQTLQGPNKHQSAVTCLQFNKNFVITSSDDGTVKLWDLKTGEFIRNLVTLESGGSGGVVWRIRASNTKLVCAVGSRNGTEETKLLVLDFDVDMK
Sequence of FBW7/Skp1 (P63208 whole entry partner, species assumed): as the sequence (P63208 whole entry partner, one chain of several) above
Sequence of FBW7/Skp1 (Q13616 whole entry partner, species assumed): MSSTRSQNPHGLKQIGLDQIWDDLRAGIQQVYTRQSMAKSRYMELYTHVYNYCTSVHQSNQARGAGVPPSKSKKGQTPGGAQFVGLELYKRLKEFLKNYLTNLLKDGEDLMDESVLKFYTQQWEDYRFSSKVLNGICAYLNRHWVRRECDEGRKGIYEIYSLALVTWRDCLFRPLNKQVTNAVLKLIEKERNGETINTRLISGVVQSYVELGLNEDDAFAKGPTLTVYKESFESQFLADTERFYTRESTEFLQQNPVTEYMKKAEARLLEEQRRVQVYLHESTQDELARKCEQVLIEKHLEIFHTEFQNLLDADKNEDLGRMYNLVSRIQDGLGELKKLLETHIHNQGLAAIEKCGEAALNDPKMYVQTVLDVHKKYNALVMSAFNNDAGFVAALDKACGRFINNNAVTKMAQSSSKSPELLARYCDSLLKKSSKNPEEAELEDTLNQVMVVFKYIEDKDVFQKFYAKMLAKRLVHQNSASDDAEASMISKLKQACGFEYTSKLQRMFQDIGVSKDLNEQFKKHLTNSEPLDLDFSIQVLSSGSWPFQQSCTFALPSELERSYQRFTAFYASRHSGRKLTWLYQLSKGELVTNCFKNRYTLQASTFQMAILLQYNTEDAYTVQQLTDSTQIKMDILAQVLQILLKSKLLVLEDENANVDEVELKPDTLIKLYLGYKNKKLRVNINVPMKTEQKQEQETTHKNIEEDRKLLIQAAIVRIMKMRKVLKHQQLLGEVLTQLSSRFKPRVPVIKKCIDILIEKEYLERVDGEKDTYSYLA
Sequence of FBW7/Skp1 (P62877 whole entry partner, species assumed): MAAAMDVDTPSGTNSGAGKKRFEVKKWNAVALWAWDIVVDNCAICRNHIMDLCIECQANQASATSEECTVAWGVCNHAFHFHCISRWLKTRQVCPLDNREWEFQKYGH
Sequence of β-TrCP1/Skp1 (P63208 2-163 partner limits assumed, one chain of several): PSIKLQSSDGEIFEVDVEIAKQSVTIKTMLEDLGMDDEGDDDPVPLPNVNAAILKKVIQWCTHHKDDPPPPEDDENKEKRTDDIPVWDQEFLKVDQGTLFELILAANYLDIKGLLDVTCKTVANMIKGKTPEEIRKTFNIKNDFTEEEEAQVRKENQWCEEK
Sequence of Skp2 (Q13309 whole entry, species assumed): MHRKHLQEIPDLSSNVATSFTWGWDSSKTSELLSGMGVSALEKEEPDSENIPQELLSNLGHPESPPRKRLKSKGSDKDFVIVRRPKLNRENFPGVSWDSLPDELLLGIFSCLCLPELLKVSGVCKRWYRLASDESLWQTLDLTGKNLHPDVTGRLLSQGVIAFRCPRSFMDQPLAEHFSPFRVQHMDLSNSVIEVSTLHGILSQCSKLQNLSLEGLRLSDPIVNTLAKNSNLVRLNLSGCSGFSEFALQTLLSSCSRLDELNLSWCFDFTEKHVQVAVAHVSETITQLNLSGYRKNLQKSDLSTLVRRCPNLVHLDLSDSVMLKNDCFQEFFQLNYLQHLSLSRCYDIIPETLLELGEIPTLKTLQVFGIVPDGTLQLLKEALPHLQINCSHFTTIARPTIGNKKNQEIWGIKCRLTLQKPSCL
Sequence of Skp2 (P63208 whole entry partner, species assumed): as the sequence (P63208 whole entry partner, one chain of several) above
Sequence of Skp2 (Q13616 whole entry partner, species assumed): as the sequence (Q13616 whole entry partner, species assumed) above
Sequence of Skp2 (P62877 whole entry partner, species assumed): as the sequence (P62877 whole entry partner, species assumed) above

As for `COC(=O)N[C@H](CC(=O)O)C(=O)N[C@@H](CCC(=O)O)C(=O)NCC(=O)N[C@@H](Cc1cccc(F)c1)C(=O)N[C@@H](Cc1c[nH]c2ccccc12)C(=O)N[C@@H](CCC(=O)O)C(N)=O` [UBP020, MeO(CO)-dEGF(3F)WE-NH2] (Moc-[dD]EG[Phe(3-F)]WE-NH2), on βTrCP [1], the “Biotin Pulldown Assay 10 μM” value is listed as “reduces/” and the “Biotin Pulldown Assay 100 μM” value is “inhibits”. On FBW7/Skp1, the inhibition at 100 µM came out at 8% and the inhibition at 10 µM turned out to be 6%. In addition, the IC50 on βTrCP [2] (setting [3]) is 0.076 ± 0.014 µM. For the same compound, on β-TrCP1/Skp1, the “Ub Assay 10 μM” value is reported as “inhibits/” and the “Ub Assay 100 μM” value is on record as “inhibits”. Further, at Skp2, the inhibition at 100 µM came to 16% and the inhibition at 10 µM worked out at 0%.
Regarding `Cc1ccc(S(=O)(=O)N[C@H](CC(=O)O)C(=O)N[C@@H](CC(=O)O)C(=O)NCC(=O)N[C@@H](Cc2cccc(F)c2)C(=O)N[C@@H](Cc2c[nH]c3ccccc23)C(=O)N[C@@H](CCC(=O)O)C(N)=O)cc1` [UBP025, Ts-dDGF(3F)WE-NH2] (Tos-[dD]DG[Phe(3-F)]WE-NH2), on βTrCP [1], the “Biotin Pulldown Assay 10 μM” value is listed as “s. reduces/” and the “Biotin Pulldown Assay 100 μM” value was “inhibits”. At FBW7/Skp1, the inhibition at 100 µM was 8% and the inhibition at 10 µM was 1%. The IC50 on βTrCP [2] (setting [3]) was 0.025 ± 0.004 µM. The IC50 on βTrCP [2] (setting [4]) turned out to be 0.025 µM. Further, on β-TrCP1/Skp1, the “Ub Assay 10 μM” value is given as “inhibits/” and the “Ub Assay 100 μM” value is “inhibits”. At Skp2, the inhibition at 100 µM came to 22% and the inhibition at 10 µM came out at 0%.
With `Cc1ccc(S(=O)(=O)N[C@H](CC(=O)O)C(=O)N[C@@H](CCC(=O)O)C(=O)NCC(=O)N[C@@H](Cc2cccc(F)c2)C(=O)N[C@@H](Cc2c[nH]c3ccccc23)C(=O)N[C@@H](CC(=O)O)C(N)=O)cc1` [UBP027, Ts-dEGF(3F)WD-NH2] (Tos-[dD]EG[Phe(3-F)]WD-NH2), on βTrCP [1], the “Biotin Pulldown Assay 10 μM” value was “s. reduces/” and the “Biotin Pulldown Assay 100 μM” value was “inhibits”. Also, on FBW7/Skp1, the inhibition at 100 µM was 8% and the inhibition at 10 µM turned out to be 3%. In addition, the IC50 on βTrCP [2] (setting [3]) was 0.034 ± 0.005 µM. Besides, the IC50 on βTrCP [2] (setting [4]) amounted to 0.034 µM. Moreover, on β-TrCP1/Skp1, the “Ub Assay 10 μM” value is recorded as “inhibits/” and the “Ub Assay 100 μM” value is “inhibits”. At Skp2, the inhibition at 100 µM was determined as 6% and the inhibition at 10 µM is 4%.
Consider `Cc1ccc(S(=O)(=O)N[C@H](CC(=O)O)C(=O)N[C@@H](CC(=O)O)C(=O)NCC(=O)N[C@@H](Cc2cccc(F)c2)C(=O)N[C@@H](Cc2c[nH]c3ccccc23)C(=O)N[C@@H](CC(=O)O)C(N)=O)cc1` [UBP028, Ts-dDGF(3F)WD-NH2] (Tos-[dD]DG[Phe(3-F)]WD-NH2), for which, at βTrCP [1], the “Biotin Pulldown Assay 10 μM” value was “reduces/” and the “Biotin Pulldown Assay 100 μM” value is on record as “inhibits”. Further, on FBW7/Skp1, the inhibition at 100 µM was 10% and the inhibition at 10 µM is 4%. Moreover, the IC50 on βTrCP [2] (setting [3]) came to 0.081 ± 0.02 µM. Moreover, at βTrCP [2] (setting [4]), the IC50 came out at 0.081 µM. Besides, at β-TrCP1/Skp1, the “Ub Assay 10 μM” value is “inhibits/” and the “Ub Assay 100 μM” value was “inhibits”. Also, on Skp2, the inhibition at 100 µM was 14% and the inhibition at 10 µM stood at 0%.
In the case of `COc1ccc(S(=O)(=O)N[C@H](CC(=O)O)C(=O)N[C@@H](CCC(=O)O)C(=O)NCC(=O)N[C@@H](Cc2cccc(F)c2)C(=O)N[C@@H](Cc2c[nH]c3ccccc23)C(=O)N[C@@H](CCC(=O)O)C(N)=O)cc1OC` [UBP029, 3,4-(MeO)2-PhSO2-dEGF(3F)WE-NH2] (X2-[dD]EG[Phe(3-F)]WE-NH2), on βTrCP [1], the “Biotin Pulldown Assay 10 μM” value is given as “reduces/” and the “Biotin Pulldown Assay 100 μM” value is “inhibits”. In addition, at FBW7/Skp1, the inhibition at 100 µM is 0% and the inhibition at 10 µM came out at 2%. Besides, the IC50 at βTrCP [2] (setting [3]) worked out at 0.042 ± 0.001 µM. Moreover, on β-TrCP1/Skp1, the “Ub Assay 10 μM” value was “reduces/” and the “Ub Assay 100 μM” value is listed as “inhibits”. Also, at Skp2, the inhibition at 100 µM is 19% and the inhibition at 10 µM stood at 19%.
